Measurements: US20140106387A1, “METHOD FOR CONTROLLING NAD(P)/NAD(P)H RATIO BY OXIDOREDUCTASE” (MD BIOALPHA CO., LTD., priority 2006, published 2014)

Legend:
[1] = system: MN9X cells; assay: intracellular ATP concentration in non-dopaminergic neuronal cells; format: cell-based; conditions: 5 μM
Description: Dopaminergic (MN9D) and non-dopaminergic (MN9X) neuronal cells were treated with 5 μM pyran-1,2-naphthoquinone and the ATP concentration was periodically measured.

[2] = system: AMPK, ACC; assay: AMPK and ACC phosphorylation in HepG2 cells (Western blot); format: cell-based, human
Description: Cells were lysed in SDS sample buffer (62.5 mM Tris HCl (pH 6.8), 6% (w/v) SDS, 30% glycerol, 125 mM DTT, and 0.03% (w/v) bromophenol blue). The total cell lysates were boiled at a temperature of 100° C. for 5 min and electrophoresed on a sodium dodecyl sulfate-polyacrylamide gel, and proteins were transferred on a nitrocellulose membrane. The membrane was reacted in TBS (5% (w/v) milk and 0.1% Tween 20) for 1 hour, and then reacted with primary antibodies for 2 hours. Next, the membrane was developed using HRP-conjugated secondary antibodies (Phototope-HRP Western Blot Detection Kit, New England Biolabs, Beverly, Mass.).
(§1) HepG2 (human hepatoma cell line), HEK293 (Human embryonic kidney cell line), and C2C12/L6 myoblasts were purchased from American Type Culture Collection (ATCC, Manassas, Va., USA). LKB−/− MEFs were purchased from R.A. DePinho. Rat ventricular myocytes were enzymatically isolated from the heart of adult […] by a known method. Phosphorylation of AMPK (Thr172) and ACC (Ser79) was measured by Western blot analysis using Cell Signaling Technologies and pan- and phospho-specific antibodies (Upstate Biotechnology, Inc., Lake Placid, N.Y.).
This Example was carried out to confirm whether an NQO1 activator has effects through NQO1 on phosphorylation of AMPK and ACC that are intracellular energy-regulating proteins. In order to examine phosphorylation of AMP kinase and ACC (acetyl-CoA carboxylase) by the NQO1 activator pyrano-1,2-naphthoquinone, HepG2 cells (Human hepatoma cell line) were seeded onto a 6-well plate at a density of 1×10^5 cells per well, and cultured in a RPMI+10% FBS medium. After growing the cells for 24 hours, the culture medium was replaced with a serum-free RPMI medium and cells were treated with pyrano-1,2-naphthoquinone (10 μM) for 30 min, 1 hr, 2 hrs, 4 hrs and 6 hrs, in combination with a control (DMSO). Anti-ACC and Anti-pS79-ACC were used to observe phosphorylated ACC, whereas Anti-AMPK and Anti-pT172-AMPK were used to observe phosphorylated AMP kinase.
In order to investigate the importance of an NQO1 protein in phosphorylation of AMP kinase, HepG2, MCF-7 and HEK293 cells were seeded onto 60 mm plates at a density of 1×10^6 cells/plate. After growing the cells for 24 hours, the culture medium was replaced with a serum-free medium, and cells were treated with pyrano-1,2-naphthoquinone (10 μM) for 30 min, respectively, in combination with a control group (DMSO). Cells were lysed in RIPA buffer and amounts of all proteins were quantified using a spectrophotometer, and 50 μg of the protein was subjected to electrophoresis. AMP kinase phosphorylation was examined using Anti-AMPK and Anti-pT172-AMPK, whereas the NQO1 protein was assayed using Anti-NQO1. […]

[3] = system: AMPKα, ACC; assay: AMPKα and ACC phosphorylation in tissues of DIO mice (Western blot); format: in vivo, mouse
Description: as §1
Using various proteins extracted from liver, gonadal fat (WAT), EDL and soleus muscle of DIO mice treated with a vehicle or βL for 2 days, T172 phosphorylation of AMPKα and S79 phosphorylation of ACC in each tissue were measured by Western blot analysis.
FIG. 26 is a photograph showing effects of an NQO1 activator on AMPK & ACC phosphorylation in C57BL/6 mice. In order to investigate anti-obesity effects of an NQO1 activator, the NQO1 activator was administered daily to DIO mice at a dose of 50 mg/kg via an oral route, and effects of the NQO1 activator on phosphorylation of AMPK and ACC, which play an important role in energy metabolism and lipogenesis in the liver and gonadal adipose tissues, were examined. […] Phosphorylated AMPK is believed to activate metabolism associated with energy. Whereas, it is believed that ACC, which is affected by activation of AMPK, is phosphorylated and lipogenic activity thereof is then inhibited, which will then exert some effects on lipid metabolism including inhibition of obesity.

[4] = system: AMPK; assay: AMPK kinase assay in mouse tissues; format: in vivo
[5] = blood metabolic parameters in C57BL/6 DIO mice; format: in vivo, mouse
Description: O2 consumption of animals was recorded by a known method. For indirect calorimetry, mice were individually housed in calorimetry chambers (Oxymax OPTO-M3 system; Columbus Instruments, Columbus, Ohio). Animals were allowed to acclimate to a new environment for 48 hours prior to the experiment, and amounts of O2 consumption and CO2 production were measured for […] every 30 minutes. Mice were given free access to food and drinking water during the first 24 h period, and animals were given access to drinking water only during the second 24 h period. Blood samples were taken from a heparinized tube, immediately placed on ice, centrifuged and stored at −20[…] for future use. Enzymatic colorimetry was employed for quantification of triglyceride (TG), total cholesterol, free fatty acids, and glucose (Beckman Instruments, CA). Plasma insulin (Linco Research, MO), TNFα (R&D System), adiponectin (Linco Research, MO), resistin (KOMED) and leptin (Linco Research, MO) were quantified by ELISA.

[6] = glucose tolerance and insulin sensitivity in OLETF rats; format: in vivo, rat; conditions: Days 3 and 21 after treatment
Description: Glucose tolerance test (GTT) was carried out for 12 h-fasted mice by a known method. As described above, 12 h-fasted mice received an insulin stimulation test
FIG. 45 is a graph showing glucose tolerance and insulin sensitivity measured in vehicle-treated ° LEIF rats and βL-treated OLETF rats. Glucose and insulin were i.p. and i.v. injected, respectively, and the blood glucose level was measured.

[7] = mean body temperature after cold exposure; format: in vivo, mouse; conditions: ambient temperature of 4 for 12 hours
[8] = AMP/ATP, NAD+/NADH and NADP+/NADPH ratios in liver after intravenous administration; format: in vivo, mouse; conditions: Lean mice
[9] = DIO mice, oral 50 mg/kg, data not shown

SMILES: CC1(C)CCC2=C(O1)c1ccccc1C(=O)C2=O [βL, 2,2-Dimethyl-3,4-dihydro-2H-benzo[h]chromene-5,6-dione]
- intracellular ATP concentration [1]: decreased
- duration of AMP kinase phosphorylation effects ([2]; HepG2, 10 μM): up to 6 hours
- initial time point at which phosphorylation of AMP kinase was observed ([2]; HepG2, 10 μM): 30 min
- phosphorylation of ACC ([2]; HepG2, 10 μM): also phosphorylated
- ACC phosphorylation and AMPK phosphorylation/activation ([2]; HepG2 cells): accelerates
- phosphorylation of AMPK and ACC in the gonadal and liver tissues ([3]; C57BL/6 DIO mice, 50 mg/kg daily, oral): has an effect on phosphorylation of AMPK and ACC
- S79 phosphorylation of ACC and T172 phosphorylation of AMPKα ([3]; gonadal fat of DIO mice treated for 2 days): no such effects
- S79 phosphorylation of ACC and T172 phosphorylation of AMPKα ([3]; liver and muscle (EDL, Soleus) of DIO mice treated for 2 days): increased
- AMPK activity in the liver and gonadal adipose tissues ([4]; C57BL/6 mice, 5 mg/kg tail vein, 2 hours and 4 hours): increased AMPK activity
- AMPK activity in liver, EDL and soleus muscle vs vehicle-treated control ([4]; DIO mice, oral 50 mg/kg): higher
- duration of oral administration effect on AMPK activity [4, 9]: about 6 hours
- time of maximum oral administration effect on AMPK activity [4, 9]: 2 h
- blood level of resistin ([5]; 50 mg/kg daily oral): significantly improved
- insulin resistance and leptin resistance ([5]; 50 mg/kg daily oral): improved
- blood fat and glucose levels ([5]; Days 3, 7, 14, 28 and 56, 50 mg/kg daily oral): significantly improved
- glucose tolerance and insulin sensitivity [6]: improvements in glucose tolerance and insulin sensitivity
- mean body temperature after cold exposure [7]: more resistant to the cold
- changes in the AMP/ATP ratio and NAD+/NADP ratio compared with control [8]: less changes
